Source: ChEMBL document CHEMBL1671708, “Hydroxymethylnitrofurazone is active in a murine model of Chagas' disease” (Antimicrob Agents Chemother, 2010)
Activity calls are given as the source filed them. No cut-off for these calls is given here.

Tests used:
Trypanosoma cruzi [1] = experiment: Antimicrobial activity against Trypanosoma cruzi Tulahuen infected in Swiss mouse assessed as mouse mortality rate at 150 mg/kg/day, po for 6 days per week until completion of 60 compound doses administered 5 days post infection; type: functional
Trypanosoma cruzi [2] = experiment: Antimicrobial activity against Trypanosoma cruzi Tulahuen infected in Swiss mouse assessed as parasite DNA level at 150 mg/kg/day, po for 6 days per week until completion of 60 compound doses administered 5 days post infection measured 30 days post dose by PCR amplification method; type: functional
Trypanosoma cruzi [3] = experiment: Antimicrobial activity against Trypanosoma cruzi Tulahuen infected in Swiss mouse assessed as parasite DNA level at 150 mg/kg/day, po for 6 days per week until completion of 60 compound doses administered 5 days post infection measured 180 days post dose by PCR amplification method; type: functional
Mus musculus [4] = experiment: Toxicity in Swiss mouse infected with Trypanosoma cruzi Tulahuen assessed as occurrence of erected hair at 150 mg/kg/day, po for 6 days per week until completion of 60 compound doses administered 5 days post infection measured 2 weeks post dose; type: organism-based; design: route oral; conditions: in vivo, 336 h
Mus musculus [5] = experiment: Toxicity in Swiss mouse infected with Trypanosoma cruzi Tulahuen assessed as occurrence of dehydration at 150 mg/kg/day, po for 6 days per week until completion of 60 compound doses administered 5 days post infection measured 2 weeks post dose; type: organism-based; design: route oral; conditions: in vivo, 336 h
Mus musculus [6] = experiment: Toxicity in Swiss mouse infected with Trypanosoma cruzi Tulahuen assessed as occurrence of inactivity at 150 mg/kg/day, po for 6 days per week until completion of 60 compound doses administered 5 days post infection measured 2 weeks post dose; type: organism-based; design: route oral; conditions: in vivo, 336 h
Trypanosoma cruzi [7] = experiment: (§1) Antimicrobial activity against Trypanosoma cruzi Tulahuen infected in Swiss mouse assessed as reduction in blood parasite load at 150 mg/kg/day, po for 6 days per week until completion of 60 compound doses administered 5 days post infection; type: functional, organism-based
Trypanosoma cruzi [8] = experiment: as §1, with “in” for “in blood”, “specific antibodies” for “load”, “infection measured 45 days post dose by ELISA based serological study” for “infection”; type: functional, organism-based
Trypanosoma cruzi [9] = experiment: as §1, with “reduction in” for “blood”, “induced histopathological changes in skeletal muscle” for “load”, “infection by hematoxylin-eosin staining” for “infection”; type: functional, organism-based
Trypanosoma cruzi [10] = experiment: as §1, with “reduction in” for “blood”, “induced histopathological changes in liver” for “load”, “infection by hematoxylin-eosin staining” for “infection”; type: functional, organism-based
Mus musculus [11] = experiment: Toxicity in Trypanosoma cruzi Tulahuen infected in Swiss mouse assessed as changes in liver SGOT enzyme levels at 150 mg/kg/day, po for 6 days per week until completion of 60 compound doses administered 5 days post infection […]; type: organism-based; design: route oral; conditions: in vivo
Trypanosoma cruzi [12] = experiment: Antimicrobial activity against Trypanosoma cruzi Tulahuen infected in Swiss mouse assessed as mouse mortality at 60 mg/kg/day, po for 6 days per week until completion of 60 compound doses administered 5 days post infection; type: functional
Trypanosoma cruzi [13] = experiment: Antimicrobial activity against Trypanosoma cruzi Tulahuen infected in Swiss mouse assessed as parasite DNA level at 60 mg/kg/day, po for 6 days per week until completion of 60 compound doses administered 5 days post infection measured 30 days post dose by PCR amplification method; type: functional
Trypanosoma cruzi [14] = experiment: Antimicrobial activity against Trypanosoma cruzi Tulahuen infected in Swiss mouse assessed as parasite DNA level at 60 mg/kg/day, po for 6 days per week until completion of 60 compound doses administered 5 days post infection measured 180 days post dose by PCR amplification method; type: functional
Trypanosoma cruzi [15] = experiment: (§2) Antimicrobial activity against Trypanosoma cruzi Tulahuen infected in Swiss mouse assessed as reduction in blood parasite load at 60 mg/kg/day, po for 6 days per week until completion of 60 compound doses administered 5 days post infection; type: functional, organism-based
Trypanosoma cruzi [16] = experiment: as §2, with “in” for “in blood”, “specific antibodies” for “load”, “infection measured 45 days post dose by ELISA based serological study” for “infection”; type: functional, organism-based
Trypanosoma cruzi [17] = experiment: (§3) Antimicrobial activity against Trypanosoma cruzi Tulahuen infected in Swiss mouse assessed as reduction in parasite specific antibodies at 60 mg/kg/day, po for 6 days per week until completion of 60 compound doses administered 5 days post infection measured 180 days post dose by ELISA based serological study; type: functional; design: scale not given: the % may be the effect or the level left
Trypanosoma cruzi [18] = experiment: as §2, with “reduction in” for “blood”, “induced histopathological changes in skeletal muscle” for “load”, “infection by hematoxylin-eosin staining” for “infection”; type: functional, organism-based
Trypanosoma cruzi [19] = experiment: as §2, with “reduction in” for “blood”, “induced histopathological changes in liver” for “load”, “infection by hematoxylin-eosin staining” for “infection”; type: functional, organism-based
Mus musculus [20] = experiment: Toxicity in Trypanosoma cruzi Tulahuen infected in Swiss mouse assessed as changes in liver SGOT enzyme levels at 60 mg/kg/day, po for 6 days per week until completion of 60 compound doses administered 5 days post infection […]; type: organism-based; design: route oral; conditions: in vivo
Trypanosoma cruzi [21] = experiment: as §3, with “at 150” for “at 60”; type: functional; design: scale not given: the % may be the effect or the level left

Row | SMILES | Activity (Trypanosoma cruzi [1]) [%] | Activity (Trypanosoma cruzi [2]) [%] | Activity (Trypanosoma cruzi [3]) [%] | Activity (Trypanosoma cruzi [7]) | Activity (Trypanosoma cruzi [8]) | Activity (Trypanosoma cruzi [9]) | Activity (Trypanosoma cruzi [10]) | Activity (Mus musculus [11]) | further results
1 | NC(=O)N/N=C/c1ccc([N+](=O)[O-])o1 [NITROFURAZONE] | 75 | 66.6 | 0 | Active | Active | Active | Active | Non-toxic | Activity (Mus musculus [4]): Toxic; Activity (Mus musculus [5]): Toxic; Activity (Mus musculus [6]): Toxic
2 | O=C(Cn1ccnc1[N+](=O)[O-])NCc1ccccc1 [BENZNIDAZOLE] | – | – | – | – | – | – | – | – | Activity (Trypanosoma cruzi [12]): 33.3%; Activity (Trypanosoma cruzi [13]): 0%; Activity (Trypanosoma cruzi [14]): 0%; Activity (Trypanosoma cruzi [15]): Active; Activity (Trypanosoma cruzi [16]): Active; Activity (Trypanosoma cruzi [17]): 50%; Activity (Trypanosoma cruzi [18]): Active; Activity (Trypanosoma cruzi [19]): Active; Activity (Mus musculus [20]): Non-toxic
3 | O=C(NCO)N/N=C/c1ccc([N+](=O)[O-])o1 [HYDROXYMETHYLNITROFURAZONE] | 16 | 10 | 0 | Active | Active | Active | Active | Non-toxic | Activity (Trypanosoma cruzi [21]): 30%
